The record followed here is ChEMBL document CHEMBL1201862, “PubChem BioAssay data set” (2004).

Molecules are shown by their SMILES.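 Each compound was tested at five concentrations against cells in 96-well plates for 48 hours. Here, GI50 denotes the concentration required for 50% inhibition of growth.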 Calls of active or inactive are those of the source. Cut-off read from the data, not from the text of the source: active = GI50 up to about 1.1 µM and inactive = higher.

Test systems include ACHN; CAKI-1; COLO 205; HT-29; K562; KM12; Malme-3M; NCI-H226; NCI-H460; OVCAR-3; OVCAR-5; RXF 393; SK-MEL-5; SNB-19; SR; BT-549.
What all share (test): DTP human tumour cell line panel, 48 h

As to `Nc1ncnc2c1ncn2C1C=CC(COS(N)(=O)=O)C1` (stereo not drawn), the GI50 in the test on ACHN was 23.9 µM (inactive); in the test on CAKI-1, 3.28 µM (inactive); in the test with COLO 205, 16.9 µM (inactive); with HT-29, 14.9 µM (inactive); in the test with K562, 16.2 µM (inactive); in the test with KM12, 19.2 µM (inactive). Moreover, the GI50 in the test with Malme-3M was > 100 µM (inactive); in the test with NCI-H226, 55.1 µM (inactive); in the test on NCI-H460, 12.2 µM (inactive); in the test on OVCAR-3 it was 31 µM (inactive); in the test on OVCAR-5, 64.1 µM (inactive); in the test with RXF 393, 12.4 µM (inactive). Further, the GI50 with SK-MEL-5 is 30.4 µM (inactive); with SNB-19, 9.23 µM (inactive); in the test on SR, 8.55 µM (inactive).
Regarding `O=CNNC(=O)Nc1cccc2ccccc12`, the GI50 in the test with ACHN, with COLO 205, in the test on HT-29, in the test on K562, in the test with KM12 and in the test with Malme-3M was > 100 µM (inactive) in each case. Besides, the GI50 is 67.1 µM (inactive) with NCI-H226; > 100 µM (inactive) in the test with NCI-H460; > 100 µM (inactive) in the test with OVCAR-5; > 100 µM (inactive) with RXF 393; > 100 µM (inactive) with SK-MEL-5; > 100 µM (inactive) with SNB-19. Further, the GI50 in the test on SR is > 100 µM (inactive).
With `CS(=O)(=O)c1ccc(C2=C(c3ccccc3)C(=O)OC2)cc1` [ROFECOXIB], the GI50 in the test on ACHN, with CAKI-1, with COLO 205, in the test with K562, in the test on KM12 and in the test on Malme-3M was > 100 µM (inactive) each time. Also, the GI50 with NCI-H226, with NCI-H460, in the test with OVCAR-3, with OVCAR-5, in the test with RXF 393 and with SK-MEL-5 was > 100 µM (inactive) throughout. For the same compound, the GI50 in the test with SNB-19 and in the test on SR was > 100 µM (inactive) throughout.
For `Cc1nnc2n1-c1ccccc1-c1[nH]c3ccccc3c1C2`, the GI50 is 39.9 µM (inactive) with ACHN; 51.1 µM (inactive) with CAKI-1; 45 µM (inactive) in the test on COLO 205; 68.2 µM (inactive) with HT-29; 24.2 µM (inactive) in the test with K562; 94.4 µM (inactive) in the test with KM12. For the same compound, the GI50 in the test with Malme-3M was 78.9 µM (inactive); in the test on NCI-H226 it was > 100 µM (inactive); in the test on NCI-H460, 30.7 µM (inactive); with OVCAR-3, 76.6 µM (inactive); with OVCAR-5, > 100 µM (inactive); with RXF 393, 44.1 µM (inactive). Further, the figures for the GI50 in the test on SK-MEL-5, in the test on SNB-19 and in the test on SR were 26.2 µM (inactive), > 100 µM (inactive) and 22.8 µM (inactive), respectively.
As for `CCCCCCCC/C=C\CCCCCCC(F)C(=O)O` (stereo not drawn), the GI50 with ACHN, with CAKI-1, with COLO 205, in the test with HT-29, with K562 and in the test with KM12 was > 12.5 µM (inactive) each time. In addition, the GI50 in the test with Malme-3M, with NCI-H226, in the test with OVCAR-3, with OVCAR-5, in the test on RXF 393 and in the test with SK-MEL-5 was > 12.5 µM (inactive) in each case. Further, the GI50 in the test with SNB-19 and in the test on SR was > 12.5 µM (inactive) in each case.
Take `Cc1nc2c(=S)n(C)ncc2[nH]1`: the GI50 in the test on ACHN, in the test with BT-549, with CAKI-1, in the test on COLO 205, in the test on HT-29 and in the test on K562 was > 100 µM (inactive) throughout. Moreover, the GI50 in the test with KM12 was > 100 µM (inactive); in the test on Malme-3M, 0.0133 µM (active); with NCI-H226, > 100 µM (inactive); in the test on OVCAR-3, > 100 µM (inactive); with OVCAR-5 it was > 100 µM (inactive); with SK-MEL-5 it was > 100 µM (inactive).

Usually GI50 stands for the concentration giving 50% growth inhibition.
